Measured values: patent US20200069648A1, “HALOALLYLAMINE PYRAZOLE DERIVATIVE INHIBITORS OF LYSYL OXIDASES AND USES THEREOF” (Pharmaxis Ltd., priority 2017, published 2020)
pIC50: −log10 of the molar value. Structures can show the parent of a compound that is named as a salt.

What was measured:
Human LOXL2 = target: T1, Human LOXL2 (Homo sapiens, UniProt Q9Y4K0); assay: LOXL2 amine oxidase inhibition, peroxidase-coupled Amplex Red assay; format: biochemical; details: 30 min preincubation at 37° C., putrescine substrate
T1 sequence (Q9Y4K0 26-774): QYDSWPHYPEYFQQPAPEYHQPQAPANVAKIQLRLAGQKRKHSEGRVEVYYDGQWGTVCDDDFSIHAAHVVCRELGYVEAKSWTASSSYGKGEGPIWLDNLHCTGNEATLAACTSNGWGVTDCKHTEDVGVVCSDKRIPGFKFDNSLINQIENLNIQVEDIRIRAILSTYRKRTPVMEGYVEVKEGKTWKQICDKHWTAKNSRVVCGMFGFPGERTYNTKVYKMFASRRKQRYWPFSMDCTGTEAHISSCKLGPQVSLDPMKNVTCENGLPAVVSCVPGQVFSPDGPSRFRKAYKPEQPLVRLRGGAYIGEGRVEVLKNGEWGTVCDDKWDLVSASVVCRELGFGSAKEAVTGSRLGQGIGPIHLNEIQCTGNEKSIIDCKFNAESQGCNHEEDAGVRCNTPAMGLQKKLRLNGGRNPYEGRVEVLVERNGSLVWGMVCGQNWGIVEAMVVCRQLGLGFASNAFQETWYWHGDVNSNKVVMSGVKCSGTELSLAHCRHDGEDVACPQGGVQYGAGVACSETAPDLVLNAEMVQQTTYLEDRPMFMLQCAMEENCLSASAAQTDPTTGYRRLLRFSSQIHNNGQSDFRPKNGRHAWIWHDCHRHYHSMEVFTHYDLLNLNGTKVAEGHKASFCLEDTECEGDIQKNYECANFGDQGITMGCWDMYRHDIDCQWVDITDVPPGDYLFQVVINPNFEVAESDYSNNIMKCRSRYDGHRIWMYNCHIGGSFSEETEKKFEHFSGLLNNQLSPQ
Description: (§1) Method to Determine the Ability of Compounds of the Invention to Inhibit LOX and LOXL1-4 from Different Sources
(§2) Lysyl oxidase (LOX) is an extracellular copper dependent enzyme which oxidizes peptidyl lysine and hydroxylysine residues in collagen and lysine residues in elastin to produce peptidyl alpha-aminoadipic-delta-semialdehydes. […] There are five LOX family members; these are LOX, LOXL1, LOXL2, LOXL3 and LOXL4. LOX and LOXL family members can be acquired as recombinant active proteins from commercial sources, or extracted from animal tissues like bovine aorta, tendons, pig skin; or prepared from cell cultures. The inhibitory effects of the compounds of the present invention were tested against the given LOX-LOXL preparation using a high-throughput coupled colorimetric method (Holt A. and Palcic M., A peroxidase-coupled continuous absorbance plate-reader assay for flavin monoamine oxidases, copper-containing amine oxidases and related enzymes. Nat. Protoc. 2006; 1: 2498-2505). The assay was developed using either 384 or 96 well format. Briefly, in a standard 384 well plate assay 25 μL of a dilution of any of the isoenzymes and orthologues in 1.2 M urea, 50 mM sodium borate buffer (pH 8.2) were added into each well in the presence of 1 μM mofegiline and 0.5 mM pargyline (to inhibit SSAO and MAO-B and MAO-A, respectively). Test compounds were dissolved in DMSO and tested in a Concentration Response Curve (CRC) with 11 data points, typically in the micromolar or nanomolar range after incubation with the enzyme for 30 min at 37° C. Twenty five μL of a reaction mixture containing twice the KM concentration of putrescine (Sigma Aldrich, e.g. 20 mM for LOX, or 10 mM for LOXL2 and LOXL3), 120 μM Amplex Red (Sigma Aldrich) and 1.5 U/mL horseradish peroxidase (Sigma Aldrich) prepared in 1.2 M urea, 50 mM sodium borate buffer (pH 8.2) were then added to the corresponding wells. The above volumes were doubled in the case of 96 wells plate. The fluorescence (RFU) was read every 2.5 min for 30 min at a range of temperatures from 37° to 45° C., excitation 565 nm and emission 590 (Optima; BMG labtech). The slope of the kinetics for each well was calculated using MARS data analysis software (BMG labtech) and this value was used to deduce the IC50 value (Dotmatics).

Recombinant human MAO-B = target: T2, Recombinant human MAO-B (Homo sapiens, UniProt P27338); assay: Human recombinant MAO-B inhibition; format: biochemical; details: benzylamine 100 μM
T2 construct: purchased Sigma Aldrich
T2 sequence (P27338 1-520): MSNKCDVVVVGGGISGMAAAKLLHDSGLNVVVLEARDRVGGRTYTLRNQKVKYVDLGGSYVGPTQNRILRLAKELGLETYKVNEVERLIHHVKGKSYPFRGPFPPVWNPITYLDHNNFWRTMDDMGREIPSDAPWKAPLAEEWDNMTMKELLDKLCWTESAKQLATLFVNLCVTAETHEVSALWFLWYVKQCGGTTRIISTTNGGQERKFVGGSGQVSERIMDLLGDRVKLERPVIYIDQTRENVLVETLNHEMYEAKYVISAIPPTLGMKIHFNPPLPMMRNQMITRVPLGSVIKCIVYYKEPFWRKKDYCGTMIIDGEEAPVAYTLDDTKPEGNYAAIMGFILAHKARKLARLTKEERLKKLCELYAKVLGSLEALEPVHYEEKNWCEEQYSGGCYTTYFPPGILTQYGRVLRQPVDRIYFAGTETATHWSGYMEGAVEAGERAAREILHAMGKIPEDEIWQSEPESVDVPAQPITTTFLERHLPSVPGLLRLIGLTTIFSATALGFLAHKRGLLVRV
Experimental: Method to Determine the Ability of Compounds of Formula I to Inhibit Human Recombinant MAO-B
The specificity of the compounds of this invention was tested by determining their ability to inhibit MAO-B activities in vitro. Recombinant human MAO-B (0.06 mg/mL; Sigma Aldrich) was used as source of MAO-B enzyme activities. The assay was performed in a similar way as for human SSAO/VAP-1 (Example 46) except, the substrate benzylamine was used at 100 μM.

Bovine LOX = target: T3, Bovine LOX (Bos taurus, UniProt P33072); assay: LOX amine oxidase inhibition, peroxidase-coupled Amplex Red assay; format: biochemical; details: 30 min preincubation at 37° C., putrescine substrate
T3 sequence (P33072 170-418): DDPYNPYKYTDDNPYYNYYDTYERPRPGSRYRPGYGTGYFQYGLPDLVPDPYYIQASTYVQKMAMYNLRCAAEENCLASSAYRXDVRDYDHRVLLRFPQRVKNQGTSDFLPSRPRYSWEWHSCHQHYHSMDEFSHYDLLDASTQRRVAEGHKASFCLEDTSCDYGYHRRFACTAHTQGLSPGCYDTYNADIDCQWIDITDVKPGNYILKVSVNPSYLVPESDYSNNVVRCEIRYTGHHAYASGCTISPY
Description: as §1
as §2, with “Test compounds were dissolved in DMSO and tested in a Concentration Response Curve (CRC) with 11 data points, typically in the micromolar or nanomolar range after incubation with the enzyme for 30 min at 37° C.” left out

Cc1nn(C/C(F)=C/CN)c(C)c1Cc1ccc(S(=O)(=O)N(C)C)cc1 (as salt: hydrochloride) [Compound 2, (Z)-4-((1-(4-amino-2-fluorobut-2-en-1-yl)-3,5-dimethyl-1H-pyrazol-4-yl)methyl)-N,N-dimethylbenzenesulfonamide hydrochloride]
melting point: 209 to 211 °C

Cc1nn(Cc2ccc(S(=O)(=O)N(C)C)cc2)c(C)c1C/C(F)=C/CN (as salt: hydrochloride) [Compound 10, (Z)-4-((4-(4-amino-2-fluorobut-2-en-1-yl)-3,5-dimethyl-1H-pyrazol-1-yl)methyl)-N,N-dimethylbenzenesulfonamide hydrochloride]
melting point: 180 to 185 °C

Cc1nn(C/C(F)=C/CN)c(C(=O)O)c1Cc1ccc(S(=O)(=O)N(C)C)cc1 (as salt: hydrochloride) [Compound 30, (Z)-1-(4-amino-2-fluorobut-2-enyl)-4-(4-(N,N-dimethylsulfamoyl)benzyl)-3-methyl-1H-pyrazole-5-carboxylic acid hydrochloride]
melting point: 164 to 166 °C

Cc1nn(C/C(F)=C/CN)c(C)c1Cc1ccc(S(=O)(=O)N2CCOCC2)cc1 (as salt: hydrochloride) [Compound 6, (Z)-4-(3,5-dimethyl-4-(4-(morpholinosulfonyl)benzyl)-1H-pyrazol-1-yl)-3-fluorobut-2-en-1-amine hydrochloride]
melting point: 190 to 197 °C

CNS(=O)(=O)c1cc(F)c(Cn2nc(C)c(C/C(F)=C/CN)c2C)cc1F (as salt: hydrochloride) [Compound 26, (Z)-4-((4-(4-amino-2-fluorobut-2-en-1-yl)-3,5-dimethyl-1H-pyrazol-1-yl)methyl)-2,5-difluoro-N-methylbenzenesulfonamide hydrochloride]
melting point: 100 to 103 °C

Cc1nn(C/C(F)=C/CN)c(C)c1Cc1ccc(S(=O)(=O)N(C)C)c2ccccc12 (as salt: hydrochloride) [Compound 9, (Z)-4-((1-(4-amino-2-fluorobut-2-en-1-yl)-3,5-dimethyl-1H-pyrazol-4-yl)methyl)-N,N-dimethyl naphthalene-1-sulfonamide hydrochloride]
melting point: 70 to 80 °C

Cc1nn(C/C(F)=C/CN)c(C(C)O)c1Cc1ccc(S(=O)(=O)N(C)C)c(Cl)c1 (stereo not shown) [Compound 36, (Z)-4-((1-(4-amino-2-fluorobut-2-en-1-yl)-5-(1-hydroxyethyl)-3-methyl-1H-pyrazol-4-yl)methyl)-2-chloro-N,N-dimethylbenzenesulfonamide]
pIC50 (Human LOXL2): > 6.00 | pIC50 (Recombinant human MAO-B): < 4.52 | pIC50 (Bovine LOX): < 5.00

Cc1c(Cc2ccc(S(=O)(=O)N(C)C)c(Cl)c2)c(C(C)O)nn1C/C(F)=C/CN (stereo not shown) [Compound 37, (Z)-4-((1-(4-amino-2-fluorobut-2-en-1-yl)-3-(1-hydroxyethyl)-5-methyl-1H-pyrazol-4-yl)methyl)-2-chloro-N,N-dimethylbenzenesulfonamide]
pIC50 (Human LOXL2): > 6.00 | pIC50 (Bovine LOX): > 5.00

Cc1nn(C/C(F)=C/CN)c(C(C)(C)O)c1Cc1ccc(S(=O)(=O)N(C)C)c(Cl)c1 [Compound 54, (Z)-4-((1-(4-amino-2-fluorobut-2-en-1-yl)-5-(2-hydroxypropan-2-yl)-3-methyl-1H-pyrazol-4-yl)methyl)-2-chloro-N,N-dimethylbenzenesulfonamide hydrochloride]
pIC50 (Human LOXL2): < 6.00 | pIC50 (Bovine LOX): < 5.00

CC(C)c1nn(C/C(F)=C/CN)c(C(C)O)c1Cc1ccc(S(=O)(=O)N(C)C)cc1Cl (stereo not shown) [Compound 58, (Z)-4-((1-(4-amino-2-fluorobut-2-en-1-yl)-5-(1-hydroxyethyl)-3-isopropyl-1H-pyrazol-4-yl)methyl)-3-chloro-N,N-dimethylbenzenesulfonamide hydrochloride]
pIC50 (Human LOXL2): > 6.00 | pIC50 (Bovine LOX): < 5.00

Cc1nn(Cc2ccc(S(=O)(=O)N(C)C)cc2Cl)c(C)c1C/C(F)=C/CN [Compound 47, (Z)-4-((4-(4-amino-2-fluorobut-2-en-1-yl)-3,5-dimethyl-1H-pyrazol-1-yl)methyl)-3-chloro-N,N-dimethylbenzenesulfonamide hydrochloride]
pIC50 (Human LOXL2): > 6.00 | pIC50 (Bovine LOX): > 5.00

COCc1c(Cc2ccc(S(=O)(=O)N(C)C)c(Cl)c2)c(C)nn1C/C(F)=C/CN [Compound 38, (Z)-4-((1-(4-amino-2-fluorobut-2-en-1-yl)-5-(methoxymethyl)-3-methyl-1H-pyrazol-4-yl)methyl)-2-chloro-N,N-dimethylbenzenesulfonamide]
pIC50 (Human LOXL2): > 6.00 | pIC50 (Bovine LOX): > 5.00
